Source: patent US11339193B2, “CDP protein secretion inhibitors” (KEZAR LIFE SCIENCES, priority 2018, dated 2022)
Where two headings read alike, the source gives them in different places. Square brackets hold non-standard residues; d marks the D form. Peptide text beside a SMILES is read from it. NMeTrp(1-(4-Br-benzyl)) = CN[C@@H](Cc1cn(Cc2ccc(Br)cc2)c2ccccc12)C(=O)O; Butanoyl(2R-oxy,4-CN) = N#CCC[C@@H](O)C(=O)O; Nva(5,5,5-F3) = N[C@@H](CCC(F)(F)F)C(=O)O; Abu(4,4,4-F3) = N[C@@H](CC(F)(F)F)C(=O)O; NMeBta = CN[C@@H](Cc1csc2ccccc12)C(=O)O; Ala(cPr) = N[C@@H](CC1CC1)C(=O)O; tBuAla = CC(C)(C)C[C@H](N)C(=O)O; NMeL = CN[C@@H](CC(C)C)C(=O)O; NMeA = CN[C@@H](C)C(=O)O

Legend:
Format in all cases: cell-based
[1] = tested on: PD1-ss+10aa/Gaussia Luciferase; test: Dox induced PD1-ss-Gluc assay
Method in brief: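 Stable Flp-In 293 T-REx line expressing doxycycline-inducible Gaussia luciferase fused to the PD1 signal sequence plus 10 amino acids. Cells plated the day before, then exposed to compound dilutions in DMSO/media containing doxycycline at 37 °C, 5% CO2.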

[2] = tested on: HER3ss-Gluc; test: HER3ss assay
Method in brief: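 HEK-293T T-REx cells were transiently transfected with HER3 signal sequence (plus four mature-domain residues) fused upstream of mature Gaussia luciferase. Cells were induced with doxycycline (1 μg/ml) and exposed to increasing compound concentrations for 24 h, then secreted luciferase in the conditioned medium was read by luminescence.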

[3] = tested on: NCI-H929 multiple myeloma cell line; test: H929 assay (cell viability, Celltiter-Glo); conditions: Homo sapiens, read-out: H929 EC50
Method in brief: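 Cells plated in RPMI 1640 with 10% FBS and 2 mM glutamine, treated with compound dilutions in DMSO/media. Incubation 48 h at 37° C, 5% CO2. Viability from luciferase luminescence signal.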

[4] = tested on: JJN3 plasma cell leukemia cell line; test: JJN-3 assay (Alamar blue); conditions: Homo sapiens, 72 h
Procedure: (§1) BT474 is a human breast tumor cell line. JJN3 is a human plasma cell leukemia cell line. […] Cells were seeded at 100 000 cells/mL. Aliquots of 5000 cells (50 μL) were added to each well in black, clear bottom 96-well plates. Compounds or control (50 uL of 1% DMSO in cell culture medium) were added to the cells to the indicated final concentrations and cells were incubated for 72 h (unless otherwise specified). After incubation was complete, Alamar blue (10 uL of a 1 mg/mL solution) was added to each well and plates were incubated for 5 h. Fluorescence was then measured (excitation 545 nm, emission 590 nm) and is reported as […] normalized to DMSO control.

[5] = tested on: TNFα-FL/Gaussia Luciferase; test: Dox induced TNFα-FL-Gluc assay
Method in brief: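 Stable Flp-In 293 T-REx line expressing full-length TNFα (aa 1-233) fused at its C-terminus to Gaussia luciferase under doxycycline-inducible control. Cells plated the day before, then given compound dilutions in DMSO/media containing doxycycline and incubated at 37 °C, 5% CO2.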

[6] = tested on: VCAMss+10aa/Gaussia Luciferase; test: VCAM-ss-Gluc assay (constitutively active or Dox induced); conditions: Flp-In 293 T-REx cells, 24 hours
Procedure: Assays Constitutively Active VCAM-ss-Gluc Assay
Transfected cells were selected for resistance to the selectable markers Hygromycin and Blasticidin to create a stable cell line that constitutively expressed the VCAMss+ 10aa/Gaussia Luciferase fusion protein. The day before assay, cells were trypsinized and plated in 384-well tissue culture plates. The next day, culture media was removed from the wells and replaced with fresh media. Compound dilutions in DMSO/media were added to the wells and incubated at 37° C., 5% CO2.
Dox Induced VCAM-ss-Gluc Assay
Transfected cells were selected for resistance to the selectable markers Hygromycin and Blasticidin to create a stable cell line that contained the VCAMss+10aa/Gaussia Luciferase cDNA insert whose expression was regulated under the T-REx™ system. The day before assay, cells were trypsinized and plated in 384-well tissue culture plates. The next day, compound dilutions in DMSO/media containing doxycycline were added to the wells and incubated at 37° C., 5% CO2.

[7] = tested on: BT474 breast tumor cell line; test: BT474 assay (Alamar blue); conditions: Homo sapiens, BT-474, 72 h
Procedure: as §1

[8] = tested on: Prl-ss+10aa/Gaussia Luciferase; test: Prl-ss-Gluc assay (constitutively active or 24 hr Dox inducible)
Method in brief: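 Stable Flp-In 293 T-REx lines express Prl signal sequence+10aa fused to Gaussia luciferase, either constitutively (pcDNA5/FRT) or under the T-REx promoter (pcDNA5/FRT/TO). Cells plated the day before; compounds in DMSO/media (with doxycycline for the inducible line, 24 h) incubated at 37 °C, 5% CO2.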

[9] = tested on: U266B1 multiple myeloma cell line; test: U266 assay (cell viability, Celltiter-Glo); conditions: Homo sapiens, U-266; 48 hours, cell viability
Procedure: Cells were plated in 384-well tissue culture plates and treated with compound dilutions in DMSO/media. Plates were incubated at 37° C., 5% CO2 for 48 hours. After 48 hours, Celltiter-Glo@ (Promega) was added to each well and luciferase signal was quantified using Tecan Infinite M1000 Pro for cell viability determination.

[10] = Flp-In 293 T-REx cells, doxycycline, 24 hours; read-out: PD1ss Gluc IC50
[11] = HEK-293T T-rex cells, transient transfection, doxycycline, 24 h; read-out: HER3 ss IC50
[12] = NCI-H929, 48 hours, cell viability
[13] = Flp-In 293 T-REx cells, doxycycline, 24 hours; read-out: TNFa FL Gluc IC50
[14] = Flp-In 293 T-REx cells, 24 hours; read-out: Prl IC50

IC50 [1, 10] [nM]	IC50 [2, 11] [nM]	EC50 [3, 12] [nM]	EC50 [4] [nM]	IC50 [5, 13] [nM]	IC50 [6] [nM]	EC50 [7] [nM]	IC50 [8, 14] [µM]	EC50 [9] [µM]	Structure (SMILES)	IC50 ([1]; read-out: PD1ss Gluc IC50; Flp-In 293 T-REx cells, doxycycline, 24 hours) [nM]	IC50 ([2]; read-out: HER3 ss IC50; HEK-293T T-rex cells, transient transfection, doxycycline, 24 h) [nM]	EC50 ([3]; NCI-H929, 48 h) [nM]	IC50 ([8]; read-out: Prl IC50; Flp-In 293 T-REx cells, 24 hours) [µM]	IC50 ([5]; read-out: TNFa FL Gluc IC50; Flp-In 293 T-REx cells, doxycycline, 24 hours) [nM]
168	17	3370	623	550	22	1800	–	–	CC(C)C[C@@H]1NC(=O)[C@H](CC(C)C)N(C)C(=O)[C@H](CC(F)(F)F)NC(=O)[C@@H](CCC#N)OC(=O)[C@H](C)N(C)C(=O)[C@H](CCC(F)(F)F)NC(=O)[C@H](Cc2csc3ccccc23)N(C)C1=O [C-49] (cyclo(L[NMeBta][Nva(5,5,5-F3)][NMeA][Butanoyl(2R-oxy,4-CN)][Abu(4,4,4-F3)][NMeL]))	–	–	–	–	–
100	22	2640	316	314	26	1340	3.4	–	CC(C)C[C@@H]1NC(=O)[C@H](Cc2csc3ccccc23)N(C)C(=O)[C@H](CC(C)C)NC(=O)[C@H](CC(C)C)N(C)C(=O)[C@H](CC(C)C)NC(=O)[C@@H](CCC#N)OC(=O)[C@H](C)N(C)C1=O [C-29] (HELM PEPTIDE1{L.[meA].[N#CCC[C@@H](O[*:1])C(=O)[*:2]].L.[meL].L.[CN([C@@H](Cc1csc2ccccc12)C(=O)[*:2])[*:1]]}$PEPTIDE1,PEPTIDE1,1:R1-7:R2$$$V2.0)	–	–	–	–	–
37	–	3950	894	357	167	3300	5.47	19.9	CC(C)C[C@@H]1NC(=O)[C@H](Cc2cn(Cc3ccc(C(F)(F)F)cc3)c3ccccc23)N(C)C(=O)[C@H](CC(C)C)NC(=O)[C@H](CC(C)C)N(C)C(=O)[C@H](CC(C)C)NC(=O)[C@@H](CCC#N)OC(=O)[C@H](C)N(C)C1=O [C-42] (HELM PEPTIDE1{L.[meA].[N#CCC[C@@H](O[*:1])C(=O)[*:2]].L.[meL].L.[CN([C@@H](Cc1cn(Cc2ccc(C(F)(F)F)cc2)c2ccccc12)C(=O)[*:2])[*:1]]}$PEPTIDE1,PEPTIDE1,1:R1-7:R2$$$V2.0)	–	–	–	–	–
105	317	3700	957	389	320	3880	6.11	–	CC(C)C[C@@H]1NC(=O)[C@H](Cc2cn(Cc3ccc(Br)cc3)c3ccccc23)N(C)C(=O)[C@H](CC(C)C)NC(=O)[C@H](CC(C)C)N(C)C(=O)[C@H](CC2CC2)NC(=O)[C@@H](CCC#N)OC(=O)[C@H](C)N(C)C1=O [C-38] (cyclo([Ala(cPr)][NMeL]L[NMeTrp(1-(4-Br-benzyl))]L[NMeA][Butanoyl(2R-oxy,4-CN)]))	–	–	–	–	–
48	802	2280	327	184	122	2150	3.27	–	CCCC[C@@H]1NC(=O)[C@@H](CCC#N)OC(=O)[C@H](C)N(C)C(=O)[C@H](CC(C)C)NC(=O)[C@H](Cc2cn(Cc3ccc(Br)cc3)c3ccccc23)N(C)C(=O)[C@H](CC(C)C)NC(=O)[C@H](CC(C)C)N(C)C1=O [C-40] (HELM PEPTIDE1{L.[meA].[N#CCC[C@@H](O[*:1])C(=O)[*:2]].[Nle].[meL].L.[CN([C@@H](Cc1cn(Cc2ccc(Br)cc2)c2ccccc12)C(=O)[*:2])[*:1]]}$PEPTIDE1,PEPTIDE1,1:R1-7:R2$$$V2.0)	–	–	–	–	–
27	60	611	140	125	61	940	0.428	–	CC(C)C[C@@H]1NC(=O)[C@H](Cc2cn(Cc3ccc(F)c(F)c3)c3ccccc23)N(C)C(=O)[C@H](CC(C)C)NC(=O)[C@H](CC(C)C)N(C)C(=O)[C@H](CC(C)C)NC(=O)[C@@H](CCC#N)OC(=O)[C@H](C)N(C)C1=O [C-28] (HELM PEPTIDE1{L.[meA].[N#CCC[C@@H](O[*:1])C(=O)[*:2]].L.[meL].L.[CN([C@@H](Cc1cn(Cc2ccc(F)c(F)c2)c2ccccc12)C(=O)[*:2])[*:1]]}$PEPTIDE1,PEPTIDE1,1:R1-7:R2$$$V2.0)	–	–	–	–	–
108	126	2840	242	373	207	1260	1.25	–	CC(C)C[C@@H]1NC(=O)[C@H](Cc2cn(Cc3cncc(F)c3)c3ccccc23)N(C)C(=O)[C@H](CC(C)C)NC(=O)[C@H](CC(C)C)N(C)C(=O)[C@H](CC(C)C)NC(=O)[C@@H](CCC#N)OC(=O)[C@H](C)N(C)C1=O [C-35] (HELM PEPTIDE1{L.[meA].[N#CCC[C@@H](O[*:1])C(=O)[*:2]].L.[meL].L.[CN([C@@H](Cc1cn(Cc2cncc(F)c2)c2ccccc12)C(=O)[*:2])[*:1]]}$PEPTIDE1,PEPTIDE1,1:R1-7:R2$$$V2.0)	–	–	–	–	–
67	330	3110	621	265	301	3570	3.29	–	CC(C)C[C@@H]1NC(=O)[C@H](Cc2cn(Cc3ccc(Br)cc3)c3ccccc23)N(C)C(=O)[C@H](CC(C)C)NC(=O)[C@H](CC(C)C)N(C)C(=O)[C@H](CC(C)(C)C)NC(=O)[C@@H](CCC#N)OC(=O)[C@H](C)N(C)C1=O [C-39] (cyclo(L[NMeA][Butanoyl(2R-oxy,4-CN)][tBuAla][NMeL]L[NMeTrp(1-(4-Br-benzyl))]))	–	–	–	–	–

Structure (SMILES)	IC50 [1, 10] [nM]	IC50 [2, 11] [nM]	EC50 [3, 12] [nM]	EC50 [4] [nM]	IC50 [5, 13] [nM]	IC50 [6] [nM]	EC50 [7] [nM]	IC50 [8, 14] [µM]	EC50 [9] [µM]	IC50 ([1]; read-out: PD1ss Gluc IC50; Flp-In 293 T-REx cells, doxycycline, 24 hours) [nM]	IC50 ([2]; read-out: HER3 ss IC50; HEK-293T T-rex cells, transient transfection, doxycycline, 24 h) [nM]	EC50 ([3]; NCI-H929, 48 h) [nM]	IC50 ([8]; read-out: Prl IC50; Flp-In 293 T-REx cells, 24 hours) [µM]	IC50 ([5]; read-out: TNFa FL Gluc IC50; Flp-In 293 T-REx cells, doxycycline, 24 hours) [nM]
CC(C)C[C@@H]1NC(=O)[C@H](Cc2cn(Cc3ccc(F)nc3)c3ccccc23)N(C)C(=O)[C@H](CC(C)C)NC(=O)[C@H](CC(C)C)N(C)C(=O)[C@H](CC(C)C)NC(=O)[C@@H](CCC#N)OC(=O)[C@H](C)N(C)C1=O [C-36] (HELM PEPTIDE1{L.[meA].[N#CCC[C@@H](O[*:1])C(=O)[*:2]].L.[meL].L.[CN([C@@H](Cc1cn(Cc2ccc(F)nc2)c2ccccc12)C(=O)[*:2])[*:1]]}$PEPTIDE1,PEPTIDE1,1:R1-7:R2$$$V2.0)	94	345	2870	289	358	351	1540	1.09	–	–	–	–	–	–
CC(C)C[C@@H]1NC(=O)[C@H](Cc2cn(Cc3ccc(Br)cc3)c3ccccc23)N(C)C(=O)[C@H](CC(C)C)NC(=O)[C@H](CC(C)C)N(C)C(=O)[C@H](CC(F)(F)F)NC(=O)[C@@H](CCC#N)OC(=O)[C@H](C)N(C)C1=O [C-41] (cyclo(L[NMeA][Butanoyl(2R-oxy,4-CN)][Abu(4,4,4-F3)][NMeL]L[NMeTrp(1-(4-Br-benzyl))]))	–	–	–	73	–	32	832	–	–	19	23	1280	1.01	77
